The results in this text go back to patent publication US20050233457A1, “Recombining viral vectors for the tetracycline-regulated expression of genes” (priority 2002, published 2005).

The test relates to HT29 colon carcinoma cells. Put plainly: Luciferase expression in lysates of adenovirally infected HT29 cells. The format is cell-based, human. To be noted: HT29, Ad.3r-luc m.o.i. 30, 24 hours. Here is the method:
[…], Colo205, SkCO-1, AsPc-1, HepG2, MCF-7, BT-20, HeLa, RT4 and U266 cells were seeded in six and twelve (U266) vial-plates at a concentration of 1×10^6 cells per cavity for 6 hours before transfection. The larger HeLa, RT-4 and 293 cells were seeded in a concentration of 5×10^5 cells per vial. U266 myeloma cells were allowed to grow in suspension culture and infected. Purified viral particles were diluted in media without supplementation and the cells were exposed to 500 μl of the suitable virus dilution per vial for 1 hour. After removal of the infectious supernatant, complete media which had been supplemented with different concentrations of doxycycline, were added. The media were changed every 24 hours.
24 hours after infection with Ad.CMV-luc or Ad.3r-luc, the cells were harvested with 150 μl of cell culture lysis reagent according to the manufacturer's (Promega) instructions. The luciferase activity in 20 μl of cell lysate was measured using a Bertold LB9507 luminometer and luciferase assay substrate (Promega). […] The protein concentration was determined using the DC protein assay kit (BioRad, Hercules, Calif.).
Human colon carcinoma cells HT29 are extremely receptive for adenoviral transduction, as has been shown previously (A. Block et al. Cancer Gene Therapy 7 (2000) 438-445). […] The luciferase activity was determined in cell lysates in relation to the dissolved cell protein. […]

Turning to `C[C@H]1c2cccc(O)c2C(=O)C2=C(O)[C@]3(O)C(=O)C(C(N)=O)=C(O)[C@@H](N(C)C)[C@@H]3[C@@H](O)[C@@H]21` [doxycycline], the “doxycycline concentration leading to a significant reduction in gene expression” value amounted to 100 pg/mL.
